From BindingDB's records for doi:10.1007/s00044-010-9428-9 (n/a, 2011) come the findings set out here.

The first experiment has as its target T1, Peroxisome proliferator-activated receptor gamma (Homo sapiens, UniProt P37231).
T1 sequence (P37231 whole entry): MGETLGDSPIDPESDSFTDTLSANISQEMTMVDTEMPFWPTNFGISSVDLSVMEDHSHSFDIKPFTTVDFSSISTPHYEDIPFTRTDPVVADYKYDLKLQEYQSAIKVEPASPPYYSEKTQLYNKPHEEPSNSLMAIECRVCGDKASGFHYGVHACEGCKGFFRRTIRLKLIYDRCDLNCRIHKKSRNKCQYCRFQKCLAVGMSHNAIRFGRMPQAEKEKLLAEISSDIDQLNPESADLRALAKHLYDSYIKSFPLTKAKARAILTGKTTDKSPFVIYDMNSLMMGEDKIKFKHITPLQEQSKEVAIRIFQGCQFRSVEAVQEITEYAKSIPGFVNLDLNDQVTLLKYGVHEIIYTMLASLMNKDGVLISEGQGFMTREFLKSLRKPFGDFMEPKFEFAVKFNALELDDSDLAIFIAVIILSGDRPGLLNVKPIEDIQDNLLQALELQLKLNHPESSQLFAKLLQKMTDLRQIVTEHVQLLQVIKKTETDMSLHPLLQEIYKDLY
Nature of the experiment: Transactivation activity at Homo sapiens (human) PPARgamma.
In the case of `O=c1[nH]c(O)c(Cc2ccc3c(c2)CC[C@H](Cc2ccccc2)O3)s1` [5-((R)-2-Benzyl-chroman-6-ylmethyl)-thiazolidine-2,4-dione], the EC50 – broadly, the concentration that produces a half-maximal response – is 1000 nM.

`CCCc1cc(Oc2ccccc2)ccc1OCCCCOc1ccc(-c2sc(=O)[nH]c2O)cc1` [5-{4-[4-(4-Phenoxy-2-propyl-phenoxy)-butoxy]-phenyl}-thiazolidine-2,4-dione] registered an EC50 of 1000 nM. This lies in the single-digit micromolar range.

For another experiment, the target named is T1, Peroxisome proliferator-activated receptor gamma. The experiment can be described thus: Transactivation activity at PPARgamma (unknown origin).
The molecule `CC/C(=N\OCCOc1ccc(Cc2sc(=O)[nH]c2O)cc1)c1ccc(-c2ccccc2)cc1` [5-(4-{2-[1-Biphenyl-4-yl-prop-(E)-ylideneaminooxy]-ethoxy}-benzyl)-thiazolidine-2,4-dione] had a concentration for a half-maximal effect (EC50) of 1600 nM. For `C/C(=N\OCCOc1ccc(Cc2sc(=O)[nH]c2O)cc1)c1cccnc1` [5-(4-{2-[1-Pyridin-3-yl-eth-(E)-ylideneaminooxy]-ethoxy}-benzyl)-thiazolidine-2,4-dione], the midpoint of the response, the EC50, lay at 2800 nM. The same measure, in the same setting: the value for `C/C(=N\OCCOc1ccc(Cc2sc(=O)[nH]c2O)cc1)c1ccccn1` [5-(4-{2-[1-Pyridin-2-yl-eth-(E)-ylideneaminooxy]-ethoxy}-benzyl)-thiazolidine-2,4-dione] was 2800 nM; that for `C/C(=N\OCCOc1ccc(Cc2sc(=O)[nH]c2O)cc1)c1ccc(-c2ccncc2)cc1` [5-(4-{2-[1-(4-Pyridin-4-yl-phenyl)-eth-(E)-ylideneaminooxy]-ethoxy}-benzyl)-thiazolidine-2,4-dione] was 1600 nM.
